pEC50: −log10 of the molar value.
How the values were obtained:
[1] = Drug uptake in macaque brain measured at 5 mins by micro-PET imaging analysis; assay type: ADME, tissue-based; settings: macaca, in vivo
[2] = Inhibition of TSZ-induced necroptosis in human HT-29 cells by CellTiter-Glo luminescent cell viability assay

SUVmax [1]	Structure (SMILES)	pEC50 [2]
~ 3.7	CC(C)(C)C(=O)N1N=CC[C@H]1c1cccc([11CH3])c1	–
–	O=C(c1ccccn1)N1CCC(C(=O)N2N=CCC2c2cc(F)cc(F)c2)CC1 (stereo not given)	7.32
–	O=C(c1ccccn1)N1CCC(C(=O)N2N=CCC2c2cccc(F)c2)CC1 (stereo not given)	7.17
–	O=C(c1cccc(F)n1)N1CCC(C(=O)N2N=CCC2c2cccc(F)c2)CC1 (stereo not given)	7.01
–	O=C(c1cccc(F)n1)N1CCC(C(=O)N2N=CCC2c2ccccc2)CC1 (stereo not given)	6.62
